The record followed here is publication PMC9964023 (Marine Drugs, 2023).

SMILES strings stand for the structures. Bridge positions count the residues as written; N and C are the ends. Peptide text beside a SMILES is read from it.

The IC50 is the point on the concentration scale where inhibition reaches its midpoint. A higher IC50 goes with weaker potency.

Holding throughout (assay): biochemical
For experiment [1], the target named is T1, serotonin transporter (SERT) (Rattus norvegicus, UniProt P31652).
T1 construct: brains were processed to yield synaptosomes as previously described; from tissue; host or cells: rat whole brain minus caudate and cerebellum, synaptosomes
T1 sequence (P31652 whole entry): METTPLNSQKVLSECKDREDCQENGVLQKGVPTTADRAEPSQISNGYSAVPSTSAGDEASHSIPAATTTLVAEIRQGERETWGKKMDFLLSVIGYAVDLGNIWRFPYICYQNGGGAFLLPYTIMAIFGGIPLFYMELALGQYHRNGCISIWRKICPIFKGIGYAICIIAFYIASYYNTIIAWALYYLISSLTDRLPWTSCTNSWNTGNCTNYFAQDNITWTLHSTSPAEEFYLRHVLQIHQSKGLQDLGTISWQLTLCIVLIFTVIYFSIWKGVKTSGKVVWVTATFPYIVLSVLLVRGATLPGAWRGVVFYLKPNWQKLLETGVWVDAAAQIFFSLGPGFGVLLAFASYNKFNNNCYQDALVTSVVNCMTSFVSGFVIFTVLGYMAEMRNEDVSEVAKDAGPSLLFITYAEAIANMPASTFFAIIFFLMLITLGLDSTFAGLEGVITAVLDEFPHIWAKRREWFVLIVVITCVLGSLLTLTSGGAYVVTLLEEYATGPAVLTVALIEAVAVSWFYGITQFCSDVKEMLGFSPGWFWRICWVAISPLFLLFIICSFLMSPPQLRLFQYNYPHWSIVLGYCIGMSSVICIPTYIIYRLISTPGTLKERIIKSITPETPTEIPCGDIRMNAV

Experiment [2] addresses T2, dopamine transporter (DAT) (Rattus norvegicus, UniProt P23977).
T2 construct: brains were processed to yield synaptosomes as previously described; from tissue; host or cells: rat caudate synaptosomes

The target in experiment [3] is T3, norepinephrine transporter (NET) (Rattus norvegicus, UniProt Q63380).
T3 construct: brains were processed to yield synaptosomes as previously described; from tissue; host or cells: rat whole brain minus caudate and cerebellum, synaptosomes
T3 sequence (Q63380 1-617): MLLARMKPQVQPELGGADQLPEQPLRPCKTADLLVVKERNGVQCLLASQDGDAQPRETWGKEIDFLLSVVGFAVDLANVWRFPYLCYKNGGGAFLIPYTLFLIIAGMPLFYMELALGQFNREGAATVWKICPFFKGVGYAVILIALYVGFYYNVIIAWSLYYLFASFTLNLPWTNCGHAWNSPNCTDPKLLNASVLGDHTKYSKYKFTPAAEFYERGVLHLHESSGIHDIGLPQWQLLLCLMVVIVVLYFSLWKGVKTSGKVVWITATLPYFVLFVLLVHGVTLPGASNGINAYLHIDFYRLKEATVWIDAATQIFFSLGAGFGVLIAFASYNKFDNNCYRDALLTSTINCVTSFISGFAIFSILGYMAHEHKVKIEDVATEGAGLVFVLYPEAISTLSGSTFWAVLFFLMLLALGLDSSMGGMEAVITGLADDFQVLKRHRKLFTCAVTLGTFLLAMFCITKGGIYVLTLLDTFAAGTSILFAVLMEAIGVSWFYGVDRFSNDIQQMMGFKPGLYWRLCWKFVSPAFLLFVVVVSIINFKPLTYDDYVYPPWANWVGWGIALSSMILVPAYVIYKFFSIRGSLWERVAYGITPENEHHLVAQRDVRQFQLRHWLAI
In kind it is biochemical.

T2 sequence (P23977 whole entry): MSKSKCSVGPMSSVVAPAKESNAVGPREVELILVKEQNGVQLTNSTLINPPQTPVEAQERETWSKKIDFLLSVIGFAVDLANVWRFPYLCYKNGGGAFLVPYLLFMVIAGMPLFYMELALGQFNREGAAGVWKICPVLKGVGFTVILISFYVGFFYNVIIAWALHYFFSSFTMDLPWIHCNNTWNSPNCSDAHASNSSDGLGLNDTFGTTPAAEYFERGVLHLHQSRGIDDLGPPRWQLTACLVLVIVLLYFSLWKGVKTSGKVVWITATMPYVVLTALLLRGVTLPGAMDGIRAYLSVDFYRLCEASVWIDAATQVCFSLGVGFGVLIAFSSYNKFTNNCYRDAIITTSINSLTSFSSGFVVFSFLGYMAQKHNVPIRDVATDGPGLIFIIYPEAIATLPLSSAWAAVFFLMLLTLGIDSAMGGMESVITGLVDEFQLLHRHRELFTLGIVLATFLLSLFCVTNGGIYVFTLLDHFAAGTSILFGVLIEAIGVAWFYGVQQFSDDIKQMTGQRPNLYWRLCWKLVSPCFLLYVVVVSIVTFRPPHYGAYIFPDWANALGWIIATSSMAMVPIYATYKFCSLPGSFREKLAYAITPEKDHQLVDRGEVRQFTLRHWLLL

Consider `CSCC[C@H](NC(=O)[C@H](CCCNC(=N)N)NC(=O)[C@H](Cc1ccc(O)cc1)NC(=O)CNC(=O)[C@@H]1CSSC[C@H](NC(=O)[C@@H](NC(=O)[C@@H](N)CO)[C@@H](C)O)C(=O)N1)C(=O)N[C@H]1CSSC[C@@H](C(N)=O)NC(=O)[C@@H]2CCCN2C(=O)[C@H](C(C)C)NC1=O` [PnID C] (H-STCCGYRMCVPC-NH2; disulfide 3-4, 9-12; N-terminus assumed), for which the half-inhibitory concentration (IC50) in experiment [1] is above 100 µM. The IC50 in experiment [2] is above 100 µM. In experiment [3], the IC50 is above 100 µM, the “activity at NET relative to ribbon isomer (in words)” value is on record as “much less active in inhibiting the rat NET” and the “biological activity (in words)” value is reported as “did not display any measurable biological activity”.
